Data set [1] can be described thus: In vitro dissolution of microneedle coating in pig cadaver skin. In kind it is in vitro ADME. To be noted: single microneedles n=3. From the text:
To assess the in vitro dissolution time, single microneedles (n=3) coated with vitamin B, calcein, or sulforhodamine, made as in Example 1, were inserted into pig cadaver skin for 10 s or 20 s. Upon removal, these microneedles were imaged by fluorescence microscopy to detect residual coating.

Data set [2] is described as follows: Delivery from individual coated microneedles in vitro into pig cadaver skin. In kind it is in vitro ADME. To be noted: 20 s insertion into pig cadaver skin. The protocol:
After removing the microneedles, fluorescence micrographs of coated microneedles and histological skin sections were collected using an Olympus IX70 fluorescent microscope with a CCD camera (RT Slider, Diagnostic Instruments). Brightfield micrographs were collected using an Olympus SZX12 stereomicroscope with a CCD camera (Leica DC 300, Leica Microsystems, Bannockburn, Ill., USA). Histological examination of pig cadaver skin was conducted on frozen sections. Pig cadaver skin was pierced with microneedles for 20 s, frozen in OCT compound (Tissue-Tek, 4583, Sakura Finetek, Torrance, Calif., USA), and cut into 10 μm-thick sections using a cryostat (Cryo-Star HM 560MV, Microm, Waldorf, Germany).

The conditions of data set [3]: cited from earlier work.
For data set [4] the following is noted: coated onto microneedles; six months storage under nitrogen at room temperature; cited from earlier work.
In another data set the test system is guinea pigs. The following applies: model antigen delivered from coated microneedles; cited from earlier work.
The mark [5] stands for this setting: 10 s insertion into pig cadaver skin.
Where [6] appears, read: 20 s insertion into pig cadaver skin.

Consider `O=C(O)CN(CC(=O)O)Cc1cc2c(cc1O)Oc1cc(O)c(CN(CC(=O)O)CC(=O)O)cc1C21OC(=O)c2ccccc21` [calcein], for which the “dissolution of microneedle coating (residual coating by fluorescence microscopy)” value in data set [1] (setting [5]) is “majority of the coating was dissolved”. Also, the “dissolution of microneedle coating (residual coating by fluorescence microscopy)” value in data set [1] (setting [6]) is listed as “completely dissolved”. In data set [2], the “distribution in skin, histology sections” value is given as “distribution of calcein along the periphery of the insertion point” and the “residue on the skin after insertion” value is “No residue was observed”.
Turning to `COc1cc(/C=C/C(=O)CC(=O)/C=C/c2ccc(O)c(OC)c2)ccc1O` [curcumin], the solubility in water result in data set [3] is reported as “negligible”.
With sulforhodamine, the “dissolution of microneedle coating (residual coating by fluorescence microscopy)” value is recorded as “majority of the coating was dissolved” in data set [1] (setting [5]) and “completely dissolved” in data set [1] (setting [6]).
Turning to `NC(=O)CC[C@@H]1NC(=O)[C@H](Cc2ccccc2)NC(=O)[C@H](Cc2ccc(O)cc2)NC(=O)CCSSC[C@@H](C(=O)N2CCC[C@H]2C(=O)N[C@H](CCCN=C(N)N)C(=O)NCC(N)=O)NC(=O)[C@H](CC(N)=O)NC1=O` [desmopressin], the integrity after storage in data set [4] was 98%.

B1: ovalbumin (protein, UniProt P01012 2-386, looked up)
Ovalbumin: GSIGAASMEFCFDVFKELKVHHANENIFYCPIAIMSALAMVYLGAKDSTRTQINKVVRFDKLPGFGDSIEAQCGTSVNVHSSLRDILNQITKPNDVYSFSLASRLYAEERYPILPEYLQCVKELYRGGLEPINFQTAADQARELINSWVESQTNGIIRNVLQPSSVDSQTAMVLVNAIVFKGLWEKAFKDEDTQAMPFRVTEQESKPVQMMYQIGLFRVASMASEKMKILELPFASGTMSMLVLLPDEVSGLEQLESIINFEKLTEWTSSNVMEERKIKVYLPRMKMEEKYNLTSVLMAMGITDVFSSSANLSGISSAESLKISQAVHAAHAEINEAGREVVGSAEAGVDAASVSEEFRADHPFLFCIKHIATNAVLFFGRCVSP
notes: model ovalbumin antigen delivered from coated microneedles
Take B1: the immune response result with guinea pigs is recorded as “strong immune response”.

The values above are taken from US9364426B2, “Method of making coated microstructures” (Georgia Tech Research Corporation, priority 2005, dated 2016).
